Measurements: patent US9302999B2, “Substituted triazoles as herbicides” (E. I. DU PONT DE NEMOURS AND COMPANY, priority 2012, dated 2016)

What was measured:
[1] = system: pigweed (Amaranthus retroflexus); assay: Test C pre-/postemergence: pigweed; assay type: in vivo
In short: (§1)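 Visual injury scored 0–100 (100 = complete control) against untreated controls after 13–15 greenhouse days. Surfactant-containing solvent formulations applied either to soil after sowing (loam/sand) or over 1- to 4-leaf plants, 2–18 cm tall.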

[2] = system: nutsedge, yellow (yellow nutsedge, Cyperus esculentus); assay: Test C pre-/postemergence: nutsedge, yellow; assay type: in vivo
In short: as §1

[3] = system: morningglory (Ipomoea coccinea); assay: Test C pre-/postemergence: morningglory; assay type: in vivo
In short: as §1

[4] = system: Barnyardgrass; assay: Test C preemergence: barnyardgrass; assay type: in vivo, Echinochloa crus-galli
[5] = system: wild oat (Avena fatua); assay: Test C pre-/postemergence: wild oat; assay type: in vivo; conditions: Postemergence
In short: as §1

[6] = system: ragweed (common ragweed, Ambrosia elation); assay: Test C pre-/postemergence: ragweed; assay type: in vivo
In short: as §1

[7] = system: galium (catchweed bedstraw, Galium aparine); assay: Test C pre-/postemergence: galium; assay type: in vivo
In short: as §1

[8] = system: pigweed (Amaranthus retroflexus); assay: Test A pre-/postemergence: pigweed; assay type: in vivo
In short: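 Rating scale 0–100 (100 = complete control), visual, ~10 days after application in the greenhouse. Applications: preemergence directed soil spray; postemergence at 1–2 leaves.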

[9] = system: blackgrass (Alopecurus myosuroides); assay: Test C pre-/postemergence: blackgrass; assay type: in vivo
In short: as §1

[10] = system: rice (Oryza sativa); assay: Test B flooded paddy: rice; assay type: in vivo; conditions: Flood; 250 g ai/ha; applied to paddy water at 2-leaf stage; visually evaluated after 13 to 15 days
In short: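 Two-leaf-stage plants, pots flooded (3 cm above soil) and treated through the water, which stayed at that depth. After 13–15 days in greenhouse conditions, visual assessment versus controls: 0 is no effect, 100 complete control, dash means no result.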

[11] = system: winter wheat (Triticum aestivum); assay: Test C pre-/postemergence: winter wheat; assay type: in vivo
In short: as §1

[12] = Postemergence, 31 g ai/ha, scale 0 to 100 (0 no effect, 100 complete control)
[13] = Postemergence, 62 g ai/ha, scale 0 to 100 (0 no effect, 100 complete control)
[14] = Postemergence, 125 g ai/ha, scale 0 to 100, 0 no effect, 100 complete control
[15] = Postemergence, 250 g ai/ha, scale 0 to 100
[16] = Preemergence, 31 g ai/ha, scale of 0 to 100, 0 is no effect, 100 is complete control
[17] = Preemergence, 62 g ai/ha, scale of 0 to 100, 0 is no effect, 100 is complete control
[18] = Preemergence, 125 g ai/ha, scale 0 to 100, 0 no effect, 100 complete control
[19] = Preemergence, 250 g ai/ha, scale 0 to 100, 0 no effect, 100 complete control
[20] = 125 g ai/ha, scale 0 to 100, 0 no effect, 100 complete control

Cc1nn(-c2ccc(F)c(C(F)(F)F)c2)nc1Cc1ccnc(C(F)(F)F)c1 [Compound 156]
100: Plant response rating, Pigweed [1, 15] | Plant response rating, Pigweed [1, 16] | Plant response rating, Pigweed [1, 17] | Plant response rating, Pigweed [1, 18] | Plant response rating, Pigweed [1, 19] | Plant response rating, Morningglory [3, 15] | Plant response rating, Galium [7, 17] | Plant response rating, Galium [7, 18] | Plant response rating, Galium [7, 19] | Plant response rating, Pigweed ([8]; Postemergence, 125 g ai/ha, 0 to 100 scale, 0 is no effect, 100 is complete control) | Pigweed plant response rating ([8]; Postemergence, 500 g ai/ha, visual rating on 0 to 100 scale (0 no effect, 100 complete control), approximately ten days) | Plant response rating, Pigweed ([8]; Preemergence, 125 g ai/ha, 0 to 100 scale where 0 is no effect and 100 is complete control) | Plant response rating, Pigweed ([8]; Preemergence, 500 g ai/ha, 0 to 100 scale (0 no effect, 100 complete control))
5: Plant response rating, Nutsedge, Yellow [2, 12] | Plant response rating, Morningglory [3, 16] | Plant response rating, Ragweed [6, 16] | Plant response rating, Wheat [11, 12] | Plant response rating, Wheat [11, 17]
10: Plant response rating, Nutsedge, Yellow [2, 13] | Plant response rating, Nutsedge, Yellow [2, 14] | Plant response rating, Nutsedge, Yellow [2, 15] | Plant response rating, Morningglory [3, 17] | Plant response rating, Morningglory [3, 18] | Plant response rating, Ragweed [6, 17]
0: Plant response rating, Nutsedge, Yellow [2, 16] | Plant response rating, Nutsedge, Yellow [2, 17] | Plant response rating, Nutsedge, Yellow [2, 18] | Plant response rating, Nutsedge, Yellow [2, 19]
20: Plant response rating, Wheat [11, 18]
80: Plant response rating, Ragweed [6, 15] | Plant response rating, Galium [7, 12]
65: Plant response rating, Morningglory [3, 12]
30: Plant response rating, Morningglory [3, 19] | Plant response rating, Ragweed [6, 18] | Plant response rating, Wheat [11, 15]
75: Plant response rating, Pigweed [1, 12] | Plant response rating, Morningglory [3, 14] | Plant response rating, Ragweed [6, 12] | Plant response rating, Ragweed [6, 13] | Plant response rating, Ragweed [6, 14] | Plant response rating, Blackgrass [9, 14]
85: Plant response rating, Barnyardgrass ([4]; 31 g ai/ha, scale of 0 to 100, 0 is no effect, 100 is complete control) | Plant response rating, Galium [7, 16] | Plant response rating, Blackgrass [9, 15] | Plant response rating, Blackgrass [9, 16]
70: Plant response rating, Morningglory [3, 13] | Plant response rating, Oat, Wild ([5]; 250 g ai/ha, scale 0 to 100)
50: Plant response rating, Oat, Wild ([5]; 62 g ai/ha, scale 0 to 100 (0 no effect, 100 complete control)) | Plant response rating, Oat, Wild [5, 20] | Plant response rating, Blackgrass [9, 12] | Plant response rating, Rice (0 to 100 scale, 0 is no effect, 100 is complete control) [10]
95: Plant response rating, Pigweed [1, 14] | Plant response rating, Galium [7, 15]
90: Plant response rating, Pigweed [1, 13] | Plant response rating, Barnyardgrass ([4]; 62 g ai/ha, scale of 0 to 100, 0 is no effect, 100 is complete control) | Plant response rating, Barnyardgrass [4, 20] | Plant response rating, Galium [7, 13] | Plant response rating, Galium [7, 14] | Plant response rating, Blackgrass [9, 17] | Plant response rating, Blackgrass [9, 18] | Plant response rating, Blackgrass [9, 19]
35: Plant response rating, Oat, Wild ([5]; 31 g ai/ha, scale 0 to 100 (0 no effect, 100 complete control)) | Plant response rating, Wheat [11, 19]
15: Plant response rating, Wheat [11, 13]
60: Plant response rating, Ragweed [6, 19] | Plant response rating, Blackgrass [9, 13]
25: Plant response rating, Wheat [11, 14]
